US20080044479A1, “Antimicrobial sanitizing formulations with skin protection properties” (priority 2006, published 2008)

How the values were obtained:
[1] = tested on: bacteria on skin surfaces; assay: Persistence of bacterial reduction on skin surfaces; type: in vivo
Text: It has been discovered that incorporation of at least one of the aforementioned antimicrobial agents in a formulation comprised of a Surfactant Phase, and a Wax Phase result in a product which is particularly effective in preventing cross-contamination of pathogenic microorganisms in the workplace. […] It is applicable to any area of intact skin, and will kill pathogenic bacteria on contact and remain effective for extended periods of time. The mechanism of microbicidal action of these antibacterial agents is thought to be due to the disruption of intermolecular actions of the microbes.

[2] = tested on: gram-positive and gram-negative bacteria, plus fungi and yeasts; settings: see list in U.S. Pat. Nos. 6,187,327 and 6,517,854; cited from earlier work

In the case of `Oc1cc(Cl)ccc1Oc1ccc(Cl)cc1Cl` [TRICLOSAN, 2,4,4′-trichloro-2′-hydroxydiphenyl ether], the “period for which the incidence of bacteria on skin surfaces is significantly reduced” value [1] is given as 3 to 4 h and the efficacy against microorganisms [2] is given as “demonstrated efficacy”.
